Measured values taken from US7166738B2, “Non-nucleoside reverse transcriptase inhibitors” (Roche Palo Alto LLC, priority 2004, dated 2007).

SMILES | melting point [°C]
Cc1cc(S(N)(=O)=O)ccc1NC(=O)Cc1ccc(Cl)c(Oc2cc(C#N)cc(C#CCO)c2)c1F [Compound I-186, 2-{4-Chloro-3-[3-cyano-5-(3-hydroxy-prop-1-ynyl)-phenoxy]-2-fluoro-phenyl}-N-(2-methyl-4-sulfamoyl-phenyl)-acetamide] | 170.1 to 173.2
Cc1ccc(CC(=O)Nc2ccc(S(N)(=O)=O)cc2)cc1Oc1cc(F)cc(C#N)c1 [Compound I-11, 2-[3-(3-Cyano-5-fluoro-phenoxy)-4-methyl-phenyl]-N-(4-sulfamoyl-phenyl)-acetamide] | 165.8 to 168.1
CCC(=O)NS(=O)(=O)c1ccc(NC(=O)Cc2ccc(C)c(Oc3cc(Cl)cc(C#N)c3)c2F)c(Cl)c1.[Na] | 158.8 to 162
Cc1cc(S(=O)(=O)CCC#N)ccc1NC(=O)Cc1ccc(C)c(Oc2cc(Cl)cc(C#N)c2)c1 [Compound I-137, 2-[3-(3-Chloro-5-cyano-phenoxy)-4-methyl-phenyl]-N-[4-(2-cyano-ethanesulfonyl)-2-methyl-phenyl]-acetamide] | 186.1 to 188
N#Cc1cccc(Oc2cc(CC(=O)Nc3ccc(S(N)(=O)=O)cc3)cc3ccoc23)c1 [Compound I-144, 2-[7-(3-Cyano-phenoxy)-benzofuran-5-yl]-N-(4-sulfamoyl-phenyl)-acetamide] | 196.4 to 198.7
CCc1ccc(CC(=O)Nc2ccccc2Cl)cc1Oc1cc(C#N)cc(F)c1Cl [Compound I-59, 2-[3-(2-Chloro-5-cyano-3-fluoro-phenoxy)-4-ethyl-phenyl]-N-(2-chloro-phenyl)-acetamide] | 142.1 to 142.8
N#Cc1cc(C#N)cc(Oc2cc(CC(=O)Nc3ccc(S(N)(=O)=O)cc3)ccc2Cl)c1 [Compound I-2, 2-[4-Chloro-3-(3,5-dicyano-phenoxy)-phenyl]-N-(4-sulfamoyl-phenyl)-acetamide] | 218 to 219
CCc1ccc(CC(=O)Nc2ccc(S(N)(=O)=O)cc2)cc1Oc1cc(Cl)cc(Br)c1 [Compound I-22, 2-[3-(3-Bromo-5-chloro-phenoxy)-4-ethyl-phenyl]-N-(4-sulfamoyl-phenyl)-acetamide] | 216.1 to 221.3
Cc1cc(C(=O)CN2CCN(C)CC2)ccc1NC(=O)Cc1ccc(C)c(Oc2cc(Cl)cc(C#N)c2)c1 [Compound I-159, 2-[3-(3-Chloro-5-cyano-phenoxy)-4-methyl-phenyl]-N-{2-methyl-4-[2-(4-methyl-piperazin-1-yl)-acetyl]-phenyl}-acetamide] | 62.3 to 64.1
N#Cc1cc(C#N)cc(Oc2c(Cl)ccc(CC(=O)Nc3ccc(S(N)(=O)=O)cc3)c2F)c1 [Compound I-9, 2-[4-Chloro-3-(3,5-dicyano-phenoxy)-2-fluoro-phenyl]-N-(4-sulfamoyl-phenyl)-acetamide] | 135.7 to 138.1
CC(C)c1ccc(CC(=O)Nc2ccc(S(N)(=O)=O)cc2)cc1Oc1cc(Cl)ccc1Br [Compound I-26, 2-[3-(2-Bromo-5-chloro-phenoxy)-4-isopropyl-phenyl]-N-(4-sulfamoyl-phenyl)-acetamide] | 204.1 to 206.7
Cc1cc(S(=O)(=O)CCN)ccc1NC(=O)Cc1ccc(C)c(Oc2cc(Cl)cc(C#N)c2)c1 [Compound I-154, N-[4-(2-Amino-ethanesulfonyl)-2-methyl-phenyl]-2-[3-(3-chloro-5-cyano-phenoxy)-4-methyl-phenyl]-acetamide] | 92.4 to 95.5
N#Cc1cc(Oc2cc(CC(=O)Nc3ccc(S(N)(=O)=O)cc3Cl)ccc2Cl)cc(C(F)(F)F)c1 [Compound I-90, 2-[4-Chloro-3-(3-cyano-5-trifluoromethyl-phenoxy)-phenyl]-N-(2-chloro-4-sulfamoyl-phenyl)-acetamide] | 198 to 202
Cc1cc(OC[C@@H](O)CO)ccc1NC(=O)Cc1ccc(C)c(Oc2cc(Cl)cc(C#N)c2)c1 [Compound I-150, 2-[3-(3-Chloro-5-cyano-phenoxy)-4-methyl-phenyl]-N-[4-((S)-2,3-dihydroxy-propoxy)-2-methyl-phenyl]-acetamide] | 137.5 to 138.4
